Experimental data as given in paper PMC9710212 (Chemical Science, 2022).
Values belong to the molecule of their own block, whether it stands above or below them. Peptide text beside a SMILES is read from it. * marks the point of attachment. Cbz = O=C(OCc1ccccc1)*

How the values were obtained:
PARP16ΔTM = molecular target: T1, PARP16ΔTM (Homo sapiens, UniProt Q8N5Y8); assay: in vitro MARylation assay; assay type: biochemical
T1 sequence (Q8N5Y8 1-287 limits assumed): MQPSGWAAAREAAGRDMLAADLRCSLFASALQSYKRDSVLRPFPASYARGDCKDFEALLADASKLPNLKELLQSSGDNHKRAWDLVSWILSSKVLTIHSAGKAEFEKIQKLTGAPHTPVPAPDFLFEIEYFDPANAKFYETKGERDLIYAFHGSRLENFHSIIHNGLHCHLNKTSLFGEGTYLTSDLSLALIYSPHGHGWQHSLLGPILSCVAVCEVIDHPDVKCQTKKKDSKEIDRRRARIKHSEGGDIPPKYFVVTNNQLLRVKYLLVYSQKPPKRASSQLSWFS

PARP1 [1] = molecular target: T2, PARP1 (Homo sapiens, UniProt P09874); assay: PASTA biochemical plate assay
T2 sequence (P09874 whole entry): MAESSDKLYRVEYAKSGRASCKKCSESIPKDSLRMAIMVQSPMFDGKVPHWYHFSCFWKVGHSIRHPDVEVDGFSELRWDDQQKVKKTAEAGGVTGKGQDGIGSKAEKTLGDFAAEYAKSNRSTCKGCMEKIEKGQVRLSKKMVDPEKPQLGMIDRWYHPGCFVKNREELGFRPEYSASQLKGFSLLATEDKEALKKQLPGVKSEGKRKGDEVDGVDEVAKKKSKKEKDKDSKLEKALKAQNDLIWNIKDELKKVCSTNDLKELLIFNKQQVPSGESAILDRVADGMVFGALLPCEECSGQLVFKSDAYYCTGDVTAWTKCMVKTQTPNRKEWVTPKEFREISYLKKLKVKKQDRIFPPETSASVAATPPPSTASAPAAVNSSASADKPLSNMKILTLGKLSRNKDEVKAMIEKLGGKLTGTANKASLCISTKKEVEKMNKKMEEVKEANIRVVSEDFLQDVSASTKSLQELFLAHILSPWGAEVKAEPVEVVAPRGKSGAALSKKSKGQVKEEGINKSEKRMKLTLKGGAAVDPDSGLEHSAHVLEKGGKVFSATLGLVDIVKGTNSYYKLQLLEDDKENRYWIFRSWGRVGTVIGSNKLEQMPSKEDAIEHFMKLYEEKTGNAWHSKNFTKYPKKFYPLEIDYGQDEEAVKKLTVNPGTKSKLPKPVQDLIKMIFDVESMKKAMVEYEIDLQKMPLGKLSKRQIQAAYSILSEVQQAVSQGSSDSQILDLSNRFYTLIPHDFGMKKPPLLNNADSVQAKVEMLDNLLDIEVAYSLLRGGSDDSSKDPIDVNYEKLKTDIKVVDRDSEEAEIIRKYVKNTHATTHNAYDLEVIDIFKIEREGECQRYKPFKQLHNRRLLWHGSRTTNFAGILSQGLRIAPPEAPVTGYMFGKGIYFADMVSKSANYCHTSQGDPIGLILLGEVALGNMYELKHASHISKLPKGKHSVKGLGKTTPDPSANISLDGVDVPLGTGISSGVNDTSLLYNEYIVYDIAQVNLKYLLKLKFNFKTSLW

PARP1 [2] = molecular target: T2, PARP1; assay: Cellular PARylation assay in HEK 293T cells; assay type: cell-based
SUMO-PARP16ΔTM = molecular target: T3, SUMO-PARP16ΔTM (Homo sapiens, UniProt Q8N5Y8); assay: Whole-protein electrospray ionization; assay type: binding; conditions: 50- or 100-fold excess of HJ-52
T3 sequence (Q8N5Y8 1-287 limits assumed): T1 sequence (Q8N5Y8 1-287 limits assumed)

PARP16 [3] = molecular target: T4, PARP16 (Homo sapiens, UniProt Q8N5Y8); assay: Nutrient starvation; assay type: cell-based; conditions: HAP1 WT, HBSS 16 h; for effect on PARP16 levels under amino acid and serum starvation: 10 μM MG132, 1 μM bafilomycin A1, 50 μM chloroquine
T4 sequence (Q8N5Y8 1-322): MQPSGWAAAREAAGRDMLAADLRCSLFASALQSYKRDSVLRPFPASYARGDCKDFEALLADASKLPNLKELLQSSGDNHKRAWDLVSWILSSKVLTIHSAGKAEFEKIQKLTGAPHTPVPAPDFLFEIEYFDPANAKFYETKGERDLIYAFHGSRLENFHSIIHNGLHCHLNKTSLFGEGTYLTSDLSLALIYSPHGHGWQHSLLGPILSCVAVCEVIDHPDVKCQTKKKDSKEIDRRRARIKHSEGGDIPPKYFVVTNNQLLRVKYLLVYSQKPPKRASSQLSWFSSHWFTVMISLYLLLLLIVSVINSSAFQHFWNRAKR

PARP16 [4] = conditions: cited from earlier work
PARP16 [5] = molecular target: T4, PARP16; assay: In vitro competition assay of DB008 labeling; assay type: binding; conditions: 1 μM competitor, 40 min, then DB008 20 min

Compound: CC(C)C[C@@H](C=O)NC(=O)[C@H](CC(C)C)NC(=O)[C@H](CC(C)C)NC(=O)OCc1ccccc1 [MG132] (Cbz-Leu-Leu-Leu-aldehyde)
effect on PARP16 levels under amino acid and serum starvation (PARP16 [3]): did not impact PARP16 levels

Compound: CO/C1=C\C(C)=C\[C@@H](C)[C@@H](O)[C@@H](C)C/C(C)=C/C=C/[C@H](OC)[C@@H]([C@@H](C)[C@@H](O)[C@H](C)[C@@]2(O)C[C@@H](O)[C@H](C)[C@@H](C(C)C)O2)OC1=O [bafilomycin A1]
effect on PARP16 levels under amino acid and serum starvation (PARP16 [3]): did not impact PARP16 levels

Compound: CCN(CC)CCCC(C)Nc1ccnc2cc(Cl)ccc12 (centres unmarked) [chloroquine]
effect on PARP16 levels under amino acid and serum starvation (PARP16 [3]): did not impact PARP16 levels

Further lines, with some results ahead:

IC50 (PARP16ΔTM): 1180 nM | fold more potent against PARP16 than olaparib (PARP16ΔTM): about 2.5 fold | IC50 (PARP1 [1]): 19 nM | potency against PARP1 relative to olaparib (PARP1 [1]): equipotent | potency against PARP1 in cellular PARylation assay (PARP1 [2]): low nanomolar potency | covalent complex formation with SUMO-PARP16ΔTM (SUMO-PARP16ΔTM): 1 : 1 covalent complex
Compound: C=CC(=O)N1CCN(C(=O)c2cc(Cc3n[nH]c(=O)c4ccccc34)ccc2F)CC1 [HJ-52, 4-(3-(4-acryloylpiperazine-1-carbonyl)-4-fluorobenzyl)phthalazin-1(2H)-one]

competition of DB008 labeling (PARP16 [5]): ~70% | effect on PARP16 levels in RIPA-soluble fraction (PARP16 [3]): increased, dose dependently | effect on starvation-induced increase of PARP16 in RIPA-insoluble fraction (PARP16 [3]): counteracted in a dose-dependent manner
Compound: Cn1ncnc1[C@H]1c2n[nH]c(=O)c3cc(F)cc(c23)N[C@@H]1c1ccc(F)cc1 [talazoparib]
inhibition of recombinant PARP16 (PARP16 [4]): sub-micromolar potency
